The record followed here is PubChem BioAssay AID394.

Each structure is given as a SMILES string.

For this test, the target named is Tyrosine-protein phosphatase non-receptor type 14 (Homo sapiens) (UniProt Q15678). Nature of the test: compound-induced PTPN14 thermal stabilization – biophysical, human, DSF, SYPRO orange (AID 394). As to conditions: recombinant PTPN14, DSF thermal shift, at 10 µM, protein 2 µM, buffer 10 mM HEPES, pH 7.5, NaCl 150 mM, stronger effect = higher value.
Sequence of Tyrosine-protein phosphatase non-receptor type 14 (Homo sapiens) (Q15678 whole entry, looked up): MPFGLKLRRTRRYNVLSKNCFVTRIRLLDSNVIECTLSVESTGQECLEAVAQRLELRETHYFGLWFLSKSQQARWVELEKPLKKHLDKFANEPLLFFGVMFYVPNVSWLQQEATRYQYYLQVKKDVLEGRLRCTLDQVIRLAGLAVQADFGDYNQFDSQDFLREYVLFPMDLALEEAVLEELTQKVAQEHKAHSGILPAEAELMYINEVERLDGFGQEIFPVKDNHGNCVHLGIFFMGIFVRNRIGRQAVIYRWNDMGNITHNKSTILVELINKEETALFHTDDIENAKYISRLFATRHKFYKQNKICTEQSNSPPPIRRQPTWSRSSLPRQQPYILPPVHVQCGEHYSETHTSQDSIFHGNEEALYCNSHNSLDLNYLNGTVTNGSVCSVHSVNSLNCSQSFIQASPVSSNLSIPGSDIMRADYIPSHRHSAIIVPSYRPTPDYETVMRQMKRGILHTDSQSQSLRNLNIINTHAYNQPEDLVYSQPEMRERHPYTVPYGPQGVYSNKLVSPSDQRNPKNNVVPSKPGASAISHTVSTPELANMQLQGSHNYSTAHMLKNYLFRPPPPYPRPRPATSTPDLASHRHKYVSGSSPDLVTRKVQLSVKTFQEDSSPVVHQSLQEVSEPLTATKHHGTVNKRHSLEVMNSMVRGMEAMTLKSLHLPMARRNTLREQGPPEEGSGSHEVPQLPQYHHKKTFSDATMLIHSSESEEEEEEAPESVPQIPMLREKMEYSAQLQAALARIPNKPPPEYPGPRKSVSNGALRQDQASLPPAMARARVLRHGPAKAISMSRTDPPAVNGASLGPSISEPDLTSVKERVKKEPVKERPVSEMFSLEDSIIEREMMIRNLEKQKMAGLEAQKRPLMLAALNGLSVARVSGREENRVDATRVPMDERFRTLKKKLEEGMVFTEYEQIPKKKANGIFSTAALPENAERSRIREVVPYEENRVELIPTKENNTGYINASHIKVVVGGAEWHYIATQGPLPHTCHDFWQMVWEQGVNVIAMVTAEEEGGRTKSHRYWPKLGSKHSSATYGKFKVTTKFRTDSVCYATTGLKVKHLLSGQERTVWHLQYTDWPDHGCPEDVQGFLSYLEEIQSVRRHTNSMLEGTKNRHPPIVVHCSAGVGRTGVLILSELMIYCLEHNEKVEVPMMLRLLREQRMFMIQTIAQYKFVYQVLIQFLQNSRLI

As for `OO.OO.[K+].[O]=[V].c1cnc2c(c1)ccc1cccnc12`, the Tm shift was 5.88 Celsius.

For `O=C(O)c1ccc(O)cn1.OO.[O]=[V]`, the Tm shift was 5.95 Celsius.

With `OO.OO.[K+].[O]=[V].c1ccc(-c2ccccn2)nc1`, the Tm shift was 4.81 Celsius.

Regarding `O=C(O)c1ccc([O-])cn1.OO.OO.[K+].[K+].[O]=[V]`, the Tm shift is 4.45 Celsius.

As to `O=C([O-])c1ccccn1.OO.OO.[K+].[K+].[O]=[V]`, under “DTT 2000 µM, with dithiothreitol”, the Tm shift was 2.3 Celsius.
